Source: patent US8598129B2, “Topical application of ivermectin for the treatment of dermatological conditions/afflictions” (Galderma S.A., priority 2003, dated 2013)

Experiment: solubility of ivermectin in various solvents
Assay type: physicochemical
Description: The table below illustrates the solubility of ivermectin in various solvents: […]

Ivermectin
Maximum % solubility of ivermectin in the solvent concerned (weight/weight) (solvent: N-methyl-2-pyrrolidone): 58.13 % (weight/weight) | Maximum % solubility of ivermectin in the solvent concerned (weight/weight) (solvent: Propylene glycol): 21.83 % (weight/weight) | Maximum % solubility of ivermectin in the solvent concerned (weight/weight) (solvent: Propylene glycol/oleyl alcohol (4 parts/2 parts)): 27.31 % (weight/weight) | Maximum % solubility of ivermectin in the solvent concerned (weight/weight) (solvent: Triacetin): 7.22 % (weight/weight)
